Experimental data reported in ChEMBL document CHEMBL3867478, “ProTides of BVdU as potential anticancer agents upon efficient intracellular delivery of their activated metabolites” (Bioorg Med Chem Lett, 2016).

Experiment: Drug level in pH 7.6 trizma buffer treated with 5 mg (E)-5-(2-bromovinyl)-2'-deoxyuridine-5'-(1-naphthyl(methoxy-L-tryptophanyl)-phosphate assessed as carboxypeptidase Y (unknown origin)-mediated compound formation measured every 7 mins for 14 hrs by [31P]-NMR spectroscopic analysis
Assay type: ADME
Settings: pH 7.6, 14 h

Structure (SMILES)	Drug metabolism
O=C(O)C(Cc1c[nH]c2ccccc12)NP(=O)(OC[C@H]1O[C@@H](n2cc(/C=C/Br)c(=O)[nH]c2=O)C[C@@H]1O)Oc1cccc2ccccc12 (stereo partly drawn)	Metabolite_Detected
O=C1OP(=O)(OC[C@H]2O[C@@H](n3cc(/C=C/Br)c(=O)[nH]c3=O)C[C@@H]2O)NC1Cc1c[nH]c2ccccc12 (stereo partly drawn)	Metabolite_Detected
O=C(O)C(Cc1c[nH]c2ccccc12)NP(=O)(O)OC[C@H]1O[C@@H](n2cc(/C=C/Br)c(=O)[nH]c2=O)C[C@@H]1O (stereo partly drawn)	Metabolite_Detected
